Measurements published in patent US8614215B2, “Quinoxaline inhibitors of phosphoinositide-3-kinases (PI3Ks)” (Merck Serono SA, priority 2007, dated 2013).

What follows are compounds tested on Human recombinant GST-PI3K (assay: PI3K induced-lipid phosphorylation, neomycin-SPA scintillation proximity assay). Conditions: Human recombinant GST-PI3K, SPA.
Format: biochemical
From the text: The efficacy of compounds of the invention in inhibiting the PI3K induced-lipid phosphorylation may be tested in the following binding assay. The assay combines the scintillation proximity assay technology (SPA, Amersham) with the capacity of neomycin (a polycationic antibiotic) to bind phospholipids with high affinity and specificity. The Scintillation Proximity Assay is based on the properties of weakly emitting isotopes (such as ^3H, ^125I, ^33P). Coating SPA beads with neomycin allows the detection of phosphorylated lipid substrates after incubation with recombinant PI3K and radioactive ATP in the same well, by capturing the radioactive phospholipids to the SPA beads through their specific binding to neomycin.
To a 96 wells MTP containing 10 μL of the test compound of Formula (I) (solubilized in 10% DMSO; […]), the following assay components are added: 1) 10 μL of lipid micelles 2) 20 μL of Kinase buffer ([^33P]γATP162 μM/300 nCi, MgCl2 2.5 mM, DTT 2.5 mM, Na3VO4 25 uM in Hepes 40 mM, pH 7.4) and 3) 10 μL (100 ng) of Human recombinant GST-PI3K (in Hepes 40 mM, pH 7.4, ethylenglycol 4%). After incubation at room temperature for 120 minutes, with gentle agitation, the reaction is stopped by addition of 200 μL of a solution containing 250 μg of neomycin-coated PVT SPA beads, ATP 60 mM and EDTA 6.2 mM in PBS. The assay is further incubated at room temperature for 60 minutes with gentle agitation to allow binding of phospholipids to neomycin-SPA beads. After precipitation of the neomycin-coated PVT SPA beads for 5 minutes at 1500×g, radioactive PtdIns(3)P is quantified by scintillation counting in a Wallac MicroBeta™ plate counter.
The values indicated in Table I below refer to the IC50 (μM) with respect to PI3K, i.e. the amount necessary to achieve 50% inhibition of said target. Said values show a considerable inhibitory potency of quinoxaline compounds with regard to PI3K.

IC50 | SMILES
60 nM | CCS(=O)(=O)Nc1nc2ccccc2nc1Nc1cc(OC)ccc1CCO [Example 38, N-(3-{[2-(2-Hydroxyethyl)-5-methoxyphenyl]amino}quinoxalin-2-yl)ethanesulfonamide]
1840 nM | COc1ccc(CCOC(=O)[C@@H](NC(=O)OCC2c3ccccc3-c3ccccc32)C(C)C)c(Nc2nc3ccccc3nc2NS(=O)(=O)c2cn(C)cn2)c1 [Example 103, 2-{4-Methoxy-2-[(3-{[(1-methyl-1H-imidazol-4-yl)sulfonyl]amino}quinoxalin-2-yl)amino]phenyl}ethyl N-[(9H-fluoren-9-ylmethoxy)carbonyl]-L-valinate]
5620 nM | COc1cc(Nc2nc3ccccc3nc2NS(C)(=O)=O)cc(C(=O)N2CCOCC2)c1 [Example 6, N-(3-{[3-methoxy-5-(morpholin-4-ylcarbonyl)phenyl]amino}quinoxalin-2-yl)methanesulfonamide]
970 nM | COc1cc(CN2CCN(C)CC2)cc(Nc2nc3ccccc3nc2NS(=O)(=O)c2cccnc2)c1 [Example 92, N-[3-({3-methoxy-5-[(4-methylpiperazin-1-yl)methyl]phenyl}amino)quinoxalin-2-yl]pyridine-3-sulfonamide]
36 nM | COc1ccc(CCO)c(Nc2nc3ccccc3nc2NS(=O)(=O)c2ccc(CCCO)cc2)c1 [Example 93, N-(3-{[2-(2Hydroxyethyl)-5-methoxyphenyl]amino}quinoxalin-2-yl)-4-(3-hydroxypropyl)benzenesulfonamide]
32 nM | COc1ccc(CCCO)c(Nc2nc3ccccc3nc2NS(=O)(=O)c2ccc(NC(=O)CN(C)C)cc2)c1 [Example 71, 2-Dimethylamino-N-(4-{[(3-{[2-(3-hydroxypropyl)-5-methoxyphenyl]amino}quinoxalin-2-yl)]sulfamoyl}phenyl)-acetamide]
65 nM | COc1ccc(CCO)c(Nc2nc3ccccc3nc2NS(=O)(=O)c2ccc(NC(=O)CO)cc2)c1 [Example 69, 2-Hydroxy-N-(4-{[(3-{[2-(2-hydroxyethyl)-5-methoxyphenyl]amino}quinoxalin-2-yl)amino]sulfonyl}phenyl)acetamide]
98 nM | COCCc1ccc(OC)cc1Nc1nc2ccccc2nc1NS(=O)(=O)C1CCNCC1 [Example 100, N-(3-{[5-Methoxy-2-(2-methoxyethyl)phenyl]amino}quinoxalin-2-yl)piperidine-4-sulfonamide]

Second part, the compound before the results:

SMILES | IC50
COc1ccc(CCS(C)(=O)=O)c(Nc2nc3ccccc3nc2NS(=O)(=O)CCCSC)c1 [Example 57, N-[3-({5-Methoxy-2-[2-(methylsulfonyl)ethyl]phenyl}amino)quinoxalin-2-yl]-3-(methylthio)propane-1-sulfonamide] | 140 nM
COc1ccc(CC2CCN(C)CC2)c(Nc2nc3ccccc3nc2NS(=O)(=O)c2cccnc2)c1 [Example 12, N-[3-({5-methoxy-2-[(1-methylpiperidin-4-yl)methyl]phenyl}amino)quinoxalin-2-yl]pyridine-3-sulfonamide] | 45 nM
COc1ccc(CC(O)CO)c(Nc2nc3ccccc3nc2NS(=O)(=O)c2cn(C)cn2)c1 [Example 77, N-[3-({2-[(2R,2S)-2,3-Dihydroxypropyl]-5-methoxyphenyl}amino)quinoxalin-2-yl]-1-methyl-1H-imidazole-4-sulfonamide] | 120 nM
COc1ccc(CCO)c(Nc2nc3ccccc3nc2NS(=O)(=O)c2ccc(OCCO)cc2)c1 [Example 94] | 34 nM
COCCc1ccc(OC)cc1Nc1nc2ccccc2nc1NS(=O)(=O)C1CCN(C(C)=O)CC1 [Example 101, 1-Acetyl-N-(3-{[5-methoxy-2-(2-methoxyethyl)phenyl]amino}quinoxalin-2-yl)piperidine-4-sulfonamide] | 300 nM
CCS(=O)(=O)Nc1nc2ccccc2nc1Nc1cc(OC)ccc1CCCO [Example 48, N-(3-{[2-(3-Hydroxypropyl)-5-methoxyphenyl]amino}quinoxalin-2-yl)ethanesulfonamide] | 59 nM
COc1ccc(CC2CCN(C(C)=O)CC2)c(Nc2nc3ccccc3nc2NS(C)(=O)=O)c1 [Example 18] | 170 nM
